Values quoted from earlier work, collected in patent US20090196914A1, “LIPOSOMAL L-CARNITINE” (priority 2002, published 2009).

Conditions: oral drug

Q: Which bioavailability does the source give for `CCC(=O)O[C@H](CC(=O)[O-])C[N+](C)(C)C` [Propionyl-L-carnitine] here?
A: 15%
